In brackets after ≈: the same amount, converted by molar mass. Like-named read-outs stand apart in the source and are kept apart here.
Test: Equilibrium solubility of 4-iodo-3-nitrobenzamide, overnight at 25° C., measured by HPLC
Format: physicochemical
Details: for solubility: thermodynamic from solid, read-out: Solubility
Method: Excess 4-iodo-3-nitrobenzamide (“BA”) was equilibrated overnight (>16 hr) at 25° C. in purified water, 0.01M HCl (pH2), 0.01M NaOH ([…]), and 0.9% NaCl. Following dilution, the solubility of the drug was measured by HPLC.
Excess 4-iodo-3-nitrobenzamide was equilibrated overnight (>16 hr) at 25° C. in solutions of purified water containing various concentrations of cyclodextrins including hydroxypropyl-β-cyclodextrin (Kleptose® from Roquette) (HPBCD), sulfobutyl ether-β-cyclodextrin (Captisol® from Cyclex) (SBEBCD), and Hyroxypropyl-γ-cyclodextrin (Cavamax W8® from Wacker) (HPGCD). Following dilution, the solubility of the drug was measured by HPLC.
Excess 4-iodo-3-nitrobenzamide was equilibrated overnight (>16 hr) at 25° C. in purified water containing various concentrations of the surfactants: polyethylene sorbitan monooleate (Polysorbate 80), polyoxyethylene sorbitan monolaurate (Polysorbate 20), Cremophor EL (BASF), Cremophor RH40 (BASF), Poloxamer 118, and Solutol HS-15 (BASF). Following dilution, the solubility of the drug was measured by HPLC.
Excess 4-iodo-3-nitrobenzamide was equilibrated overnight (>16 hr) at 25° C. in solutions of purified water containing various co-solvents including ethanol, glycofurol, glycerin formal, benzyl alcohol, N,N, dimethylacetamide (DMA), polyethylene glycol (PEG) 400, and propylene glycol. Following dilution, the solubility of the drug was measured by HPLC.
Excess 4-iodo-3-nitrobenzamide was equilibrated overnight (>16 hr) at 25° C. in solutions in purified water containing mixtures of solubilizers. Following dilution, the solubility of the drug was measured by HPLC.

For `NC(=O)c1ccc(I)c([N+](=O)[O-])c1` [BA, 4-iodo-3-nitrobenzamide], the solubility (0.01 M HCl, 25 °C, pH 2, simulated gastric fluid, 0.01 M HCl (pH 2), 25° C.) was 179 µg/mL (≈ 0.613 mM), the solubility (0.01 M NaOH, 25 °C, pH 13, aqueous buffer, 0.01M NaOH (pH 13), 25° C.) was 181 µg/mL (≈ 0.62 mM) and the solubility (0.9% NaCl, 25 °C, saline or isotonic, 0.9% NaCl, 25° C.) was 164 µg/mL (≈ 0.562 mM). The solubility (5% DMA (N,N-dimethylacetamide) in purified water, 25 °C, aqueous with cosolvent or surfactant or cyclodextrin, DMA 5%, 25° C.) was 1390 µg/mL (≈ 4.76 mM), the Enhancement (5% DMA/5% EtOH/40% PEG 400) was 44.0 and the solubility (5% DMA/5% EtOH/40% PEG 400 in purified water, 25 °C, aqueous with cosolvent or surfactant or cyclodextrin, 5% DMA/5% EtOH/40% PEG 400, 25° C.) was 8010 µg/mL (≈ 27.4 mM). It also gave an Enhancement (5% DMA/25% Solutol HS-15) of 45.7, a solubility (5% DMA/25% Solutol HS-15 in purified water, 25 °C, aqueous with cosolvent or surfactant or cyclodextrin, 5% DMA/25% Solutol HS-15, 25° C.) of 8320 µg/mL (≈ 28.5 mM) and an Enhancement (5% DMA/40% PEG 400) of 33.2. For the same compound, the solubility (5% DMA/40% PEG 400 in purified water, 25 °C, aqueous with cosolvent or surfactant or cyclodextrin, 5% DMA/40% PEG 400, 25° C.) was 6050 µg/mL (≈ 20.7 mM), the Enhancement (5% Polysorbate 20/5% ETOH) was 12.1 and the solubility (5% Polysorbate 20/5% ethanol in purified water, 25 °C, aqueous with cosolvent or surfactant or cyclodextrin, 5% Polysorbate 20/5% ETOH, 25° C.) was 2210 µg/mL (≈ 7.57 mM). For the same compound, the Enhancement (5% Polysorbate 20/5% glycofurol) was 11.0, the solubility (5% Polysorbate 20/5% glycofurol in purified water, 25 °C, aqueous with cosolvent or surfactant or cyclodextrin, 5% Polysorbate 20/5% glycofurol, 25° C.) was 2000 µg/mL (≈ 6.85 mM) and the Enhancement (5% Polysorbate 80/5% ETOH) was 12.3. It also gave a solubility (5% Polysorbate 80/5% ethanol in purified water, 25 °C, aqueous with cosolvent or surfactant or cyclodextrin, 5% Polysorbate 80/5% ETOH, 25° C.) of 2230 µg/mL (≈ 7.64 mM), an Enhancement (5% Polysorbate 80/5% glycofurol) of 13.1 and a solubility (5% Polysorbate 80/5% glycofurol in purified water, 25 °C, aqueous with cosolvent or surfactant or cyclodextrin, 5% Polysorbate 80/5% glycofurol, 25° C.) of 2390 µg/mL (≈ 8.18 mM). It also gave an Enhancement (5% Polysorbate 80/10% EtOH/40% PEG 400) of 6.7, a solubility (5% glucose (5GW), 25 °C, saline or isotonic, 5% Glucose (5GW), 25° C.) of 173 µg/mL (≈ 0.592 mM) and a solubility (10% Cremophor EL in purified water, 25 °C, aqueous with cosolvent or surfactant or cyclodextrin, Cremophor EL 10%, 25° C.) of 3500 µg/mL (≈ 12 mM). The solubility (10% Cremophor RH40 in purified water, 25 °C, aqueous with cosolvent or surfactant or cyclodextrin, Cremophor RH40 10%, 25° C.) was 3370 µg/mL (≈ 11.5 mM), the Enhancement (10% EtOH/10% Polysorbate 80) was 11.5 and the Enhancement (10% EtOH/40% PEG 400) was 18.8. The Enhancement (10% EtOH/40% PEG 400,/5% Benzyl Alcohol) was 17.1, the solubility (10% HPBCD in purified water, 25 °C, aqueous with cosolvent or surfactant or cyclodextrin, HPBCD 10% in purified water, 25° C.) was 4860 µg/mL (≈ 16.6 mM) and the solubility (10% Poloxamer 118 in purified water, 25 °C, aqueous with cosolvent or surfactant or cyclodextrin, Poloxamer 118 10%, 25° C.) was 430 µg/mL (≈ 1.47 mM). For the same compound, the solubility (10% Polysorbate 20 in purified water, 25 °C, aqueous with cosolvent or surfactant or cyclodextrin, Polysorbate 20 10%, 25° C.) was 3660 µg/mL (≈ 12.5 mM), the solubility (10% Polysorbate 80 in purified water, 25 °C, aqueous with cosolvent or surfactant or cyclodextrin, Polysorbate 80 10%, 25° C.) was 3120 µg/mL (≈ 10.7 mM) and the Enhancement (10% glycofurol, 40% PEG 400) was 33.6. The solubility (20% HPBCD in purified water, 25 °C, aqueous with cosolvent or surfactant or cyclodextrin, HPBCD 20% in purified water, 25° C.) was 9960 µg/mL (≈ 34.1 mM), the solubility (25% HPBCD in purified water, 25 °C, aqueous with cosolvent or surfactant or cyclodextrin, HPBCD 25% in purified water, 25° C.) was 11500 µg/mL (≈ 39.3 mM) and the solubility (25% HPGCD in purified water, 25 °C, aqueous with cosolvent or surfactant or cyclodextrin, HPGCD 25% in purified water, 25° C.) was 272 µg/mL (≈ 0.931 mM). The solubility (25% SBEBCD in purified water, 25 °C, aqueous with cosolvent or surfactant or cyclodextrin, SBEBCD 25% in purified water, 25° C.) was 11000 µg/mL (≈ 37.8 mM), the solubility (25% Solutol HS 15 in purified water, 25 °C, aqueous with cosolvent or surfactant or cyclodextrin, Solutol HS 15 25%, 25° C.) was 6550 µg/mL (≈ 22.4 mM) and the solubility (30% Solutol HS 15 in purified water, 25 °C, aqueous with cosolvent or surfactant or cyclodextrin, Solutol HS 15 30%, 25° C.) was 7460 µg/mL (≈ 25.5 mM). It also gave a solubility (40% HPBCD in purified water, 25 °C, aqueous with cosolvent or surfactant or cyclodextrin, HPBCD 40% in purified water, 25° C.) of 12800 µg/mL (≈ 43.7 mM), a solubility (50% PEG 400 in purified water, 25 °C, aqueous with cosolvent or surfactant or cyclodextrin, PEG 400 50%, 25° C.) of 7660 µg/mL (≈ 26.2 mM) and an Enhancement (50% Polysorbate 20/50% EtOH) of 89.6. The solubility (50% Polysorbate 20/50% EtOH, 25 °C, organic solvent or mixture, 50% Polysorbate 20/50% EtOH, 25° C.) was 16300 µg/mL (≈ 55.9 mM), the Enhancement (50% Polysorbate 80/50% EtOH) was 102.2 and the solubility (50% Polysorbate 80/50% EtOH, 25 °C, organic solvent or mixture, 50% Polysorbate 80/50% EtOH, 25° C.) was 18600 µg/mL (≈ 63.7 mM). For the same compound, the solubility (50% ethanol in purified water, 25 °C, aqueous with cosolvent or surfactant or cyclodextrin, Ethanol 50%, 25° C.) was 5720 µg/mL (≈ 19.6 mM), the solubility (50% glycerin formal in purified water, 25 °C, aqueous with cosolvent or surfactant or cyclodextrin, Glycerin Formal 50%, 25° C.) was 3450 µg/mL (≈ 11.8 mM) and the solubility (50% glycofurol in purified water, 25 °C, aqueous with cosolvent or surfactant or cyclodextrin, Glycofurol 50%, 25° C.) was 9850 µg/mL (≈ 33.7 mM). For the same compound, the solubility (50% propylene glycol in purified water, 25 °C, aqueous with cosolvent or surfactant or cyclodextrin, Propylene glycol 50%, 25° C.) was 2240 µg/mL (≈ 7.67 mM), the solubility (100% DMA (N,N-dimethylacetamide), 25 °C, organic solvent or mixture, DMA 100%, 25° C.) was 71500 µg/mL (≈ 245 mM) and the solubility (100% Polysorbate 20, 25 °C, organic solvent or mixture, Polysorbate 20 100%, 25° C.) was 10800 µg/mL (≈ 37.2 mM). The solubility (100% Polysorbate 80, 25 °C, organic solvent or mixture, Polysorbate 80 100%, 25° C.) was 16900 µg/mL (≈ 57.8 mM) and the solubility (100% benzyl alcohol, 25 °C, organic solvent or mixture, Benzyl alcohol 100%, 25° C.) was 15500 µg/mL (≈ 53.1 mM).

— patent US20100160442A1, “FORMULATIONS FOR CANCER TREATMENT” (priority 2006, published 2010)
